Data from US8420823B2, “Long-chain fatty acyl elongase inhibitor comprising arylsulfonyl derivative as active ingredient” (MSD K.K., priority 2008, dated 2013).
Where a name gives a salt, the structure may show the parent alone.

Molecular target: T1, human LCE (Homo sapiens, UniProt Q9H5J4)
T1 sequence (Q9H5J4 1-265): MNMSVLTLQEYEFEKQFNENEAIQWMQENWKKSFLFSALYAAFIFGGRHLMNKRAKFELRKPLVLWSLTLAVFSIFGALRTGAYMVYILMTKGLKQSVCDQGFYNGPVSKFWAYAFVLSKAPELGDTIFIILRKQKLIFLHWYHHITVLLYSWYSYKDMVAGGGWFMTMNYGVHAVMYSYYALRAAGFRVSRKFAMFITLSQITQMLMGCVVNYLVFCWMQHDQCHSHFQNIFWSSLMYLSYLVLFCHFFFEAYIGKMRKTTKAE
Test: LCE enzyme activity-inhibitory test
Format: biochemical
Settings: [14C]-malonyl CoA / palmitoyl CoA substrate, 37° C., 90 minutes
Protocol: Pharmacological Test Example 1 (LCE Enzyme Activity-inhibitory Test)
A test compound was dissolved in dimethyl sulfoxide (DMSO to be 10 mM), and then diluted with DMSO to prepare a 1000-fold concentrated solution of the test concentration. An improved Moon et al's method (J. Biol. Chem., Vol. 276, pp. 45358-45366, 2001) was employed for the LCE enzyme activity-inhibitor test. Concretely, the diluted compound was applied to a 96-well assay plate (Corning, 96-well assay block) in an amount of 1.0 μL/well; 50 μL of a phosphate buffer solution (100 mM potassium phosphate buffer, pH 6.5), and 25 μL of a substrate solution (100 mM potassium phosphate buffer (pH 6.5), 4.0 μM rotenone, 80 μM fatty acid-free bovine serum albumin, 160 μM palmitoyl CoA, 80 μM malonyl CoA, 3.5 μM [^14C]-malonyl CoA (1.92 GBq/mmol, by Amersham)) were added to each well; 25 μL of an enzyme solution (100 mM potassium phosphate buffer (pH 6.5), 100 μg/mL human LCE) was added thereto; the top of the plate was airtightly sealed up; and this was incubated with gently shaking and stirring at 37° C. for 90 minutes. Next, 100 μL of 5 M hydrochloric acid was added to each well, and the assay plate was stirred at room temperature for 5 minutes to stop the enzyme reaction with hydrolyzing the acyl CoA. Next, the enzyme reaction solution in each well was adsorbed by each well of a 96-well GF/C filter plate (Perkin Elmer Unifilter 96 GF/C); the individual wells were washed with water to remove the non-adsorbed malonyl CoA; and the GF/C filter plate was dried at 50° C. for 60 minutes. Next, 30 μL of a scintillator (Perkin Elmer Microscinti 0) was added to each well; then the top of the plate was sealed up; and the fixed [^14C] radioactivity was measured with a microplate scintillation counter (Perkin Elmer TopCount) to be the enzyme activity. The human LCE enzyme-inhibitory activity of the test compound was calculated, based on the radioactivity of the DMSO-added well with no test compound therein as a control.

Compound	IC50
CNC(=O)C1CCCN(S(=O)(=O)c2cccc(C(=O)Nc3ncccc3OC)c2)C1 (stereo not drawn) [Example 60, 1-[(3-{[(3-methoxypyridin-2-yl)amino]carbonyl}phenyl)sulfonyl]-N-methylpiperidine-3-carboxamide]	1.1 µM
COc1cccnc1NC(=O)c1cccc(S(=O)(=O)N2CCCC(C(=O)NCc3ccccc3)C2)c1 (stereo not drawn) [Example 61, N-benzyl-1-[(3-{[(3-methoxypyridin-2-yl)amino]carbonyl}phenyl)sulfonyl]piperidine-3-carboxamide]	0.054 µM
COc1cccnc1NC(=O)c1cccc(S(=O)(=O)N2CCCC(C(=O)OCc3ccccc3)C2)c1 (stereo not drawn) [Example 62, Benzyl 1-[(3-{[(3-methoxypyridin-2-yl)amino]carbonyl}phenyl)sulfonyl]piperidine-3-carboxylate]	0.093 µM
CC(C)Oc1cc(NC(=O)c2cccc(S(=O)(=O)N3CCOCC3)c2)[nH]n1 [Example 63, 3-Isopropoxy-5-{[3-(morpholin-4-ylsulfonyl)benzoyl]amino}-1H-pyrazole hydrochloride]	0.018 µM
CC(C)Oc1cc(NC(=O)c2cccc(S(=O)(=O)N3CCCC3C)c2)[nH]n1 (stereo not drawn) [Example 64, 3-Isopropoxy-5-({3-[(2-methylpyrrolidin-1-yl)sulfonyl]benzoyl}amino)-1H-pyrazole hydrochloride]	0.005 µM
CC(C)Oc1cc(NC(=O)c2cccc(S(=O)(=O)N3CCCC(CO)C3)c2)[nH]n1 (stereo not drawn) [Example 65, 5-[(3-{[3-(hydroxymethyl)piperidin-1-yl]sulfonyl}benzoyl)amino]-3-isopropoxy-1H-pyrazole hydrochloride]	0.0059 µM
CC(C)Oc1cc(NC(=O)c2cccc(S(=O)(=O)N3CCCC(O)C3)c2)[nH]n1 (stereo not drawn) [Example 66, 5-({3-[(3-Hydroxypiperidin-1-yl)sulfonyl}benzoyl]amino)-3-isopropoxy-1H-pyrazole hydrochloride]	0.028 µM
CC(C)Oc1cc(NC(=O)c2cccc(S(=O)(=O)N3CCC(F)CC3)c2)[nH]n1 [Example 67, 5-({3-[(4-fluoropiperidin-1-yl)sulfonyl]benzoyl}amino)-3-isopropoxy-1H-pyrazole hydrochloride]	0.01 µM
CC(C)Oc1cc(NC(=O)c2cccc(S(=O)(=O)N3CCC(F)(F)CC3)c2)[nH]n1 [Example 68, 5-({3-[(4,4-difluoropiperidin-1-yl)sulfonyl]benzoyl}amino)-3-isopropoxy-1H-pyrazole hydrochloride]	0.013 µM
CC(C)Oc1cc(NC(=O)c2cccc(S(=O)(=O)N3CCCCC3)c2)[nH]n1 [Example 69, 3-Isopropoxy-5-{[3-(piperidin-1-ylsulfonyl)benzoyl}amino]-1H-pyrazole hydrochloride]	0.0023 µM
CC(C)Oc1cc(NC(=O)c2cccc(S(=O)(=O)N3CCCC3)c2)[nH]n1 [Example 70, N-(3-isopropoxy-1H-pyrazol-5-yl)-3-(pyrrolidin-1-ylsulfonyl)benzamide hydrochloride]	0.0068 µM
O=C(Nc1ccc(F)cc1)c1cccc(S(=O)(=O)N2CCCCC2)c1 [Example 71, N-(4-fluorophenyl)-3-(piperidin-1-ylsulfonyl)benzamide]	14 µM
O=C(Nc1ccc(C(F)(F)F)cc1)c1cccc(S(=O)(=O)N2CCCCC2)c1 [Example 72, 3-(Piperidin-1-ylsulfonyl)-N-[4-(trifluoromethyl)phenyl]benzamide]	1.2 µM
O=C(NCc1ccccc1)c1cccc(S(=O)(=O)N2CCCCC2)c1 [Example 73, N-benzyl-3-(piperidin-1-ylsulfonyl)benzamide]	5.5 µM
O=C(Nc1ccccn1)c1cccc(S(=O)(=O)N2CCCCC2)c1 [Example 74, 2-{[3-(Piperidin-1-ylsulfonyl)benzoyl}amino]pyridine trifluoroacetate]	4.9 µM
O=C(Nc1cccc2cnccc12)c1cccc(S(=O)(=O)N2CCCCC2)c1 [Example 76, 5-{[3-(piperidin-1-ylsulfonyl)benzoyl]amino}isoquinoline trifluoroacetate]	2.6 µM
CC(C)c1ccc(NC(=O)c2cccc(S(=O)(=O)N3CCCCC3)c2)cc1 [Example 77, N-(4-isopropylphenyl)-3-(piperidin-1-ylsulfonyl)benzamide]	0.034 µM

Compound	IC50
O=C(NCCc1ccccc1)c1cccc(S(=O)(=O)N2CCCCC2)c1 [Example 78, N-(2-phenylethyl)-3-(piperidin-1-ylsulfonyl)benzamide]	7.9 µM
CSc1ccc(NC(=O)c2cccc(S(=O)(=O)N3CCCCC3)c2)cc1 [Example 79, N-[4-(methylthio)phenyl]-3-(piperidin-1-ylsulfonyl)benzamide]	2.2 µM
COc1ccccc1NC(=O)c1cccc(S(=O)(=O)N2CCCCC2)c1 [Example 80, N-(2-methoxyphenyl)-3-(piperidin-1-ylsulfonyl)benzamide]	0.044 µM
COc1cccc(NC(=O)c2cccc(S(=O)(=O)N3CCCCC3)c2)c1 [Example 81, N-(3-methoxyphenyl)-3-(piperidin-1-ylsulfonyl)benzamide]	1.9 µM
O=C(Nc1ccon1)c1cccc(S(=O)(=O)N2CCCCC2)c1 [Example 82, N-isoxazol-3-yl-3-(piperidin-1-ylsulfonyl)benzamide]	7.3 µM
O=C(N[C@H]1CCCc2ccccc21)c1cccc(S(=O)(=O)N2CCCCC2)c1 [Example 83, 3-(Piperidin-1-ylsulfonyl)-N-[(1S)-1,2,3,4-tetrahydronaphthalen-1-yl]benzamide]	5 µM
Cc1ccc(NC(=O)c2cccc(S(=O)(=O)N3CCCCC3)c2)cc1 [Example 84, N-(4-methylphenyl)-3-(piperidin-1-ylsulfonyl)benzamide]	2.6 µM
O=C(NC1CCc2ccccc21)c1cccc(S(=O)(=O)N2CCCCC2)c1 (stereo not drawn) [Example 85, N-(2,3-dihydro-1H-inden-1-yl)-3-(piperidin-1-ylsulfonyl)benzamide]	6 µM
O=C(NCCCc1ccccc1)c1cccc(S(=O)(=O)N2CCCCC2)c1 [Example 86, N-(3-phenylpropyl)-3-(piperidin-1-ylsulfonyl)benzamide]	3 µM
O=C(Nc1ccc(Oc2ccccc2)cc1)c1cccc(S(=O)(=O)N2CCCCC2)c1 [Example 87, N-(4-phenoxyphenyl)-3-(piperidin-1-ylsulfonyl)benzamide]	0.21 µM
O=C(Nc1ccccc1)c1cccc(S(=O)(=O)N2CCCCC2)c1 [Example 88, N-phenyl-3-(piperidin-1-ylsulfonyl)benzamide]	2.2 µM
O=C(Nc1ccccc1Cl)c1cccc(S(=O)(=O)N2CCCCC2)c1 [Example 89, N-(2-chlorophenyl)-3-(piperidin-1-ylsulfonyl)benzamide]	1.5 µM
O=C(Nc1cccc(Cl)c1)c1cccc(S(=O)(=O)N2CCCCC2)c1 [Example 90, N-(3-chlorophenyl)-3-(piperidin-1-ylsulfonyl)benzamide]	9.6 µM
CC(C)Oc1ccc(NC(=O)c2cccc(S(=O)(=O)N3CCCCC3)c2)cc1 [Example 91, N-(4-isopropoxyphenyl)-3-(piperidin-1-ylsulfonyl)benzamide]	0.031 µM
CC(=O)c1ccc(NC(=O)c2cccc(S(=O)(=O)N3CCCCC3)c2)cc1 [Example 92, N-(4-acetylphenyl)-3-(piperidin-1-ylsulfonyl)benzamide]	9.1 µM
CC(O)c1ccc(NC(=O)c2cccc(S(=O)(=O)N3CCCCC3)c2)cc1 (stereo not drawn) [Example 93, N-[4-(1-hydroxyethyl)phenyl]-3-(piperidin-1-ylsulfonyl)benzamide]	1.3 µM
